Source: US11180462B2, “Microbiocidal oxadiazole derivatives” (SYNGENTA PARTICIPATIONS AG, priority 2015, dated 2021)

What was measured:
[1] = system: Phakopsora Pachyrhizi; test: Fungicidal activity against Phakopsora pachyrhizi / soybean / leaf disc preventative (Asian soybean rust); assay type: in vivo; conditions: foliar, 200 ppm in the applied formulation, soybean leaf disks, compared to untreated control leaf disks, read-out: disease control
Procedure, shortened: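 Preventative soybean leaf-disc test: discs on water agar sprayed with diluted formulated compound, inoculated one day later with spores on the lower surface. Held 24–36 h dark at 20°C, 75% rh, then 12 h light/day; percent disease control versus untreated discs scored 12–14 days after application.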

[2] = system: Glomerella lagenarium (Colletotrichum lagenarium); test: Fungicidal activity against Glomerella lagenarium (Colletotrichum lagenarium) liquid culture / cucumber / preventative (anthracnose); assay type: cell-based; conditions: Colletotrichum orbiculare; 20 ppm in the applied formulation; liquid culture (PDB), growth inhibition measured photometrically after 3 to 4 days; compared to untreated control; read-out: disease control
Procedure, shortened: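 Photometric read-out of fungal growth after 2–7 days, expressed as percent antifungal activity versus untreated check. Cryo-stored conidia in PDB; compound at 20 ppm; dark, 24 °C, 96% RH.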

[3] = system: Puccinia recondita f. Sp. Tritici; test: Fungicidal activity against Puccinia recondita f. sp. tritici / wheat / leaf disc preventative (brown rust); assay type: in vivo; conditions: foliar, 200 ppm in the applied formulation, wheat leaf segments, preventative, compared to untreated control leaf disks, read-out: disease control
Procedure, shortened: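 Compound application precedes infection: segments of wheat cv. Kanzler, sprayed at 200 ppm, are inoculated with a spore suspension after 1 day. Incubation is at 19° C. with 75% relative humidity and 12 h light/12 h darkness, and control versus untreated leaves is rated 7 to 9 days post-application.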

[4] = system: Puccinia recondita f. Sp. Tritici; test: Fungicidal activity against Puccinia recondita f. sp. tritici / wheat / leaf disc curative (brown rust); assay type: in vivo; conditions: foliar, 24 h, 200 ppm in the applied formulation, wheat leaf segments, curative (applied 1 day after inoculation), compared to untreated control leaf disks, read-out: disease control
Procedure, shortened: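 Wheat cv. Kanzler leaf segments on agar, inoculated with rust spore suspension, kept dark at 19° C and 75% RH; formulated compound sprayed 1 day post-inoculation. Incubated 19° C, 75% RH, 12 h light/12 h dark; percent disease control vs untreated scored 6 to 8 days after application.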

SMILES	pest or weed control at 200 ppm [1] [%]	inhibition of growth at 20 ppm [2] [%]	melting point [°C]	pest or weed control at 200 ppm [3] [%]	pest or weed control at 200 ppm [4] [%]
CON(Cc1ccc(-c2noc(C(F)(F)F)n2)cc1)C(=O)/C=C/c1ccccc1 [Compound 1.5, (E)-N-methoxy-3-phenyl-N-[[4-[5-(trifluoromethyl)-1,2,4-oxadiazol-3-yl]phenyl]methyl]-prop-2-enamide]	≥ 80	≥ 80	94 to 99	–	–
CON(Cc1ccc(-c2noc(C(F)(F)F)n2)cc1)C(=O)C(NC(=O)C1CC1)C(C)C (centres unmarked) [Compound 1.54, N-[1-(methoxy-[[4-[5-(trifluoromethyl)-1,2,4-oxadiazol-3-yl]phenyl]methyl]carbamoyl]-2-methyl-propyl]-cyclopropane-carboxamide]	≥ 80	≥ 80	104.4 to 109	≥ 80	≥ 80
CON(Cc1ccc(-c2noc(C(F)(F)F)n2)c(F)c1)C(=O)c1ccccc1Cl [Compound 1.581, 2-chloro-N-[[3-fluoro-4-[5-(trifluoromethyl)-1,2,4-oxadiazol-3-yl]phenyl]methyl]-N-methoxy-benzamide]	≥ 80	≥ 80	89 to 95	≥ 80	–
COCC(=O)N(Cc1ccc(-c2noc(C(F)(F)F)n2)cc1)CC(F)(F)F [Compound 1.583, 2-methoxy-N-(2,2,2-trifluoroethyl)-N-[[4-[5-(trifluoromethyl)-1,2,4-oxadiazol-3-yl]phenyl]methyl]-acetamide]	≥ 80	≥ 80	92.6 to 94.3	≥ 80	≥ 80
CN(Cc1ccc(-c2noc(C(F)(F)F)n2)cc1)C(=O)CO [Compound 1.593, 2-hydroxy-N-methyl-N-[[4-[5-(trifluoromethyl)-1,2,4-oxadiazol-3-yl]phenyl]methyl]-acetamide]	–	≥ 80	54 to 60	≥ 80	≥ 80
CCC(=O)N(O)Cc1ccc(-c2noc(C(F)(F)F)n2)cc1 [Compound 1.603, N-hydroxy-N-[[4-[5-(trifiuoromethyl)-1,2,4-oxadiazol-3-yl]phenyl]methyl]-propanamide]	≥ 80	≥ 80	141.2 to 143.5	≥ 80	≥ 80
CCC(=O)N(Cc1ccc(-c2noc(C(F)(F)F)n2)cc1)C1COC1 [Compound 1.604, N—(Oxetan-3-yl)-N-[[4-[5-(Trifluoromethyl)-1,2,4-Oxadiazol-3-yl]Phenyl]Methyl]Propanamide]	≥ 80	≥ 80	88.8 to 93.5	≥ 80	≥ 80
O=C(C1CC1)N(Cc1ccc(-c2noc(C(F)(F)F)n2)cc1)C1COC1 [Compound 1.605, N-(oxetan-3-yl)-N-[[4-[5-(trifluoromethyl)-1,2,4-oxadiazol-3-yl]phenyl]methyl]-cyclopropane-carboxamide]	≥ 80	≥ 80	89.5 to 94	≥ 80	≥ 80
COCC(=O)N(O)Cc1ccc(-c2noc(C(F)(F)F)n2)cc1 [Compound 1.606, N-hydroxy-2-methoxy-N-[[4-[5-(trifluoromethyl)-1,2,4-oxadiazol-3-yl]phenyl]methyl]-acetamide]	≥ 80	≥ 80	144.4 to 147.8	≥ 80	≥ 80
O=C(C1CC1)N(O)Cc1ccc(-c2noc(C(F)(F)F)n2)cc1 [Compound 1.607, N-hydroxy-N-[[4-[5-(trifiuoromethyl)-1,2,4-oxadiazol-3-yl]phenyl]methyl]-cyclopropane-carboxamide]	≥ 80	≥ 80	141.2 to 143.5	≥ 80	≥ 80
CCC(=O)N(C)C(C#N)c1ccc(-c2noc(C(F)(F)F)n2)cc1 (centres unmarked) [Compound 1.611, N-[cyano-[4-[5-(trifluoromethyl)-1,2,4-oxadiazol-3-yl]phenyl]methyl]-N-methyl-propanamide]	≥ 80	≥ 80	75 to 76	≥ 80	≥ 80
CON(Cc1ccc(-c2noc(C(F)(F)F)n2)cc1)C(=O)CNC(=O)OC(C)(C)C [Compound 1.787, tert-butyl N-[2-(methoxy-[[4-[5-(trifluoromethyl)-1,2,4-oxadiazol-3-yl]phenyl]methyl]-amino]-2-oxo-ethyl]carbamate]	–	≥ 80	80 to 83.1	≥ 80	≥ 80
CON(Cc1ccc(-c2noc(C(F)(F)F)n2)cc1)C(=O)CNC(=O)C1CC1 [Compound 1.790, N-[2-[methoxy-[[4-[5-(trifluoro-methyl)-1,2,4-oxadiazol-3-yl]phenyl]methyl]-amino]-2-oxo-ethyl]-cyclopropane-carboxamide]	–	≥ 80	135.9 to 138.5	≥ 80	≥ 80
CON(Cc1ccc(-c2noc(C(F)(F)F)n2)cc1)C(=O)C(C)NC(=O)OC(C)(C)C (centres unmarked) [Compound 1.791, tert-butyl N-[2-(methoxy-[[4-[5-(trifluoromethyl)-1,2,4-oxadiazol-3-yl]phenyl]methyl]-amino]-1-methyl-2-oxo-ethyl]carbamate]	–	≥ 80	108.8 to 111.9	≥ 80	≥ 80
CON(Cc1ccc(-c2noc(C(F)(F)F)n2)cc1)C(=O)C(C)N.Cl (centres unmarked) [Compound 1.792, [2-[methoxy-[[4-[5-(trifluoromethyl)-1,2,4-oxadiazol-3-yl]phenyl]methyl]-amino]-1-methyl-2-oxo-ethyl]ammonium; chloride]	–	–	200.7 to 203.2	≥ 80	≥ 80
CCC(=O)NCC(=O)N(Cc1ccc(-c2noc(C(F)(F)F)n2)cc1)OC [Compound 1.793, N-[2-[methoxy-[[4-[5-(trifluoromethyl)-1,2,4-oxadiazol-3-yl]phenyl]methyl]-amino]-2-oxo-ethyl]propanamide]	–	≥ 80	115.3 to 117.8	≥ 80	≥ 80
CON(Cc1ccc(-c2noc(C(F)(F)F)n2)cc1)C(=O)CNC(C)=O [Compound 1.794, 2-acetamido-N-methoxy-N-[[4-[5-(trifluoromethyl)-1,2,4-oxadiazol-3-yl]phenyl]methyl]-acetamide]	–	≥ 80	132.8 to 134.9	≥ 80	≥ 80
CCON(Cc1ccc(-c2noc(C(F)(F)F)n2)cc1)C(=O)OC [Compound 2.5, methyl N-ethoxy-N-[[4-[5-(trifluoromethyl)-1,2,4-oxadiazol-3-yl]phenyl]methyl]-carbamate]	≥ 80	≥ 80	50.6 to 53	–	≥ 80
CNC(=O)N(Cc1ccc(-c2noc(C(F)(F)F)n2)cc1)C1CC1 [Compound 3.35, 1-cyclopropyl-3-methyl-1-[[4-[5-(trifluoromethyl)-1,2,4-oxadiazol-3-yl]phenyl]methyl]urea]	–	≥ 80	113 to 114	≥ 80	–
CNC(=O)CNC(=O)N(Cc1ccc(-c2noc(C(F)(F)F)n2)cc1)OC [Compound 3.50, 2-[[methoxy-[[4-[5-(trifluoromethyl)-1,2,4-oxadiazol-3-yl]phenyl]methyl]-carbamoyl]amino]-N-methyl-acetamide]	–	–	126 to 130	≥ 80	≥ 80
CON(Cc1ccc(-c2noc(C(F)(F)F)n2)cc1)C(=O)NCC1(O)CC1 [Compound 3.54, 3-[(1-hydroxycyclopropyl)-methyl]-1-methoxy-1-[[4-[5-(trifluoromethyl)-1,2,4-oxadiazol-3-yl]phenyl]methyl]urea]	–	≥ 80	107 to 110	≥ 80	≥ 80
CON(Cc1ccc(-c2noc(C(F)(F)F)n2)cc1)C(=O)NCC1CC1(F)F (centres unmarked) [Compound 3.103, 3-[(2,2-difluorocyclopropyl)-methyl]-1-methoxy-1-[[4-[5-(trifluoromethyl)-1,2,4-oxadiazol-3-yl]phenyl]methyl]urea]	–	≥ 80	81 to 84	≥ 80	≥ 80
